Columns and labels:
Assay in all cases: relative viability (nuclei count vs DMSO), 5 days (fraction); higher = more cells survive
[1] = compound: CC(=O)Nc1cccc(-n2c(=O)n(C3CC3)c(=O)c3c(Nc4ccc(I)cc4F)n(C)c(=O)c(C)c32)c1 [Trametinib] + CS(=O)(=O)CCNCc1ccc(-c2ccc3ncnc(Nc4ccc(OCc5cccc(F)c5)c(Cl)c4)c3c2)o1 [Lapatinib] (partner 2 µM)
Outline: (§1)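 Relative viability equals treated-well nuclei counts divided by vehicle-well nuclei counts. Counts came from 4× images of lung cancer cell lines grown in 1536-well plates for 5 days after pin-tool dosing on the day after seeding. Dosing used one drug alone or a fixed anchor-drug dose plus five library-drug doses (not always all listed) in √10 steps, and values are medians of duplicate plates.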

[2] = compound: CN1C=C(C2=CC=CC=C21)/C=C\3/C4=C(C=CC=N4)NC3=O + Cc1nc(NC(=O)N2CCC[C@H]2C(N)=O)sc1-c1ccnc(C(C)(C)C(F)(F)F)c1 [Alpelisib] (partner 2 µM)
Outline: as §1

[3] = compound: CN1C=C(C2=CC=CC=C21)/C=C\3/C4=C(C=CC=N4)NC3=O + Cc1nc(Nc2ncc(C(=O)Nc3c(C)cccc3Cl)s2)cc(N2CCN(CCO)CC2)n1 [Dasatinib] (partner 0.075 µM)
Outline: as §1

Cell Line	relative viability ([1]; first compound 0.0025 µM)	relative viability ([1]; first compound 0.007906 µM)	relative viability ([1]; first compound 0.025 µM)	relative viability ([1]; first compound 0.07906 µM)	relative viability ([1]; first compound 0.25 µM)	relative viability ([2]; first compound 0.02 µM)	relative viability ([2]; first compound 0.06325 µM)	relative viability ([2]; first compound 0.2 µM)	relative viability ([2]; first compound 0.6325 µM)	relative viability ([2]; first compound 2 µM)	relative viability ([3]; first compound 0.02 µM)	relative viability ([3]; first compound 0.06325 µM)	relative viability ([3]; first compound 0.2 µM)	relative viability ([3]; first compound 0.6325 µM)	relative viability ([3]; first compound 2 µM)
NCI-H2023	0.947	0.356	0.383	0.579	0.181	0.649	0.594	0.542	0.516	0.53	0.638	0.566	0.349	0.458	0.381
Calu-6	0.962	0.779	0.566	0.237	0.165	0.823	0.856	0.959	0.975	0.911	–	–	–	–	–
SW 900	–	–	–	–	–	–	–	–	–	–	0.495	0.585	–	0.537	0.481
HOP-62	0.949	0.903	0.387	0.39	0.104	0.821	0.843	0.957	0.926	1.07	0.683	0.709	0.592	0.599	0.648
H3255	0.246	0.188	0.269	0.201	0.236	0.705	0.722	0.642	0.757	0.855	0.438	0.349	0.323	0.324	0.322
NCI-H1734	1.02	1.01	–	1.03	0.517	0.706	0.663	–	0.675	0.662	0.453	0.408	–	0.455	0.517
SK-MES-1	0.447	0.39	0.352	0.362	0.344	0.763	0.853	0.84	0.963	1.02	0.271	0.322	0.279	0.305	0.353
NCI-H1792	0.976	0.79	0.682	0.535	0.417	0.536	0.723	0.608	–	0.581	0.816	0.93	0.74	–	0.66
EKVX	0.177	0.154	0.136	0.155	0.157	0.765	0.763	0.795	0.725	0.703	0.411	0.427	0.464	0.449	0.358
EPLC-272H	0.911	0.56	0.493	0.609	0.125	1.14	0.752	–	0.83	0.835	0.344	0.41	0.237	–	0.355
LK-2	0.797	0.758	0.822	0.711	0.375	–	0.766	0.76	0.943	0.61	–	–	–	0.266	0.256
CAL-12T	0.54	0.514	0.47	0.648	0.429	1.47	0.924	1.1	1.16	1.06	0.501	0.302	0.347	0.285	0.273
NCI-H322M	0.59	0.469	0.443	0.388	0.455	0.839	0.725	0.773	0.753	0.708	0.239	0.254	0.236	0.248	0.264
NCI-H1650	0.899	0.714	0.567	0.568	0.151	–	–	–	–	–	0.262	0.296	0.26	0.263	0.277
NCI-H2342	–	–	–	–	–	–	–	–	–	–	0.316	0.313	0.284	0.304	0.318
SW 1573	0.875	0.925	0.769	0.82	0.56	0.742	0.644	0.782	0.803	0.814	0.348	0.537	0.488	0.633	0.516
NCI-H2405	0.992	0.68	0.498	0.499	0.481	0.654	0.776	0.769	0.842	0.7	0.253	0.22	0.205	0.196	0.241
LCLC-103H	–	–	–	–	–	1.05	1.02	0.937	0.941	0.924	0.516	0.355	0.481	0.417	0.478
HCC-44	0.996	0.868	0.929	0.701	0.493	0.737	0.74	0.722	0.564	0.705	–	–	–	–	–
RERF-LC-KJ	0.812	0.822	0.79	0.744	0.568	0.904	0.848	0.748	0.811	0.736	0.898	0.878	0.737	0.68	0.679
NCI-H1975	0.816	0.725	0.534	0.385	0.292	0.603	0.718	0.536	0.625	0.498	0.382	0.38	0.333	0.279	0.239
IA-LM	0.251	0.31	0.101	0.136	0.0905	0.972	0.549	0.906	0.736	0.681	–	–	–	–	–
LCLC-97TM1	0.666	0.944	0.666	0.3	0.138	0.205	–	–	0.208	0.202	0.529	0.76	0.876	0.968	0.882
NCI-H520	0.855	0.912	0.756	0.68	0.428	0.796	0.69	0.859	1.02	1.04	0.206	0.213	0.199	0.182	0.221
A-427	1.1	1.05	0.619	0.818	0.678	1.08	1.02	–	1.08	1.13	0.696	0.664	–	0.644	0.86
